Test results taken from patent US20150105252A1, “SUBSTITUTED PYRAZOLES AS HERBICIDES” (E I DU PONT DE NEMOURS AND COMPANY, priority 2013, published 2015).

What was measured:
barnyardgrass [1] = assay: Test A postemergence; assay type: in vivo, Echinochloa crus-galli
Procedure, shortened: (§1)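 Visual injury rating, 0–100 (0 no effect, 100 complete control), vs untreated controls ~10 days after treatment in greenhouse. Pre: directed soil spray on seeded loam/sand. Post: 2–10 cm plants, 1–2 leaf stage. Formulation: non-phytotoxic solvent mix + surfactant.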

morningglory [2] = assay: Test A postemergence; assay type: in vivo, Ipomoea spp.
Procedure, shortened: as §1

corn [3] = assay: Test A postemergence; assay type: in vivo, Zea mays
Procedure, shortened: as §1

crabgrass, large [4] = assay: Test A preemergence; assay type: in vivo, Digitaria sanguinalis; settings: for Crabgrass, Large plant response rating (0 to 100 scale): visual injury approx. 10 days after treatment
Procedure, shortened: as §1

morningglory [5] = assay: Test A preemergence; assay type: in vivo, Ipomoea spp.; settings: for Morningglory plant response rating (0 to 100 scale): visual injury approx. 10 days after treatment
Procedure, shortened: as §1

velvetleaf [6] = assay: Test A postemergence; assay type: in vivo, Abutilon theophrasti
Procedure, shortened: as §1

sedge, umbrella = assay: Test B flood; assay type: in vivo, Cyperus difformis; settings: 250 g ai/ha, visual rating on 0 to 100 scale (0 no effect, 100 complete control), 13 to 15 days
Procedure, shortened: (§2)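 Visual ratings (0 = no effect, 100 = complete control) versus untreated controls were taken 13–15 days after treatment of greenhouse plants. Treatment was added to paddy water held at 3 cm depth on 2-leaf-stage seedlings.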

ducksalad = assay: Test B flood; assay type: in vivo, Heteranthera limosa; settings: 250 g ai/ha, visual rating on 0 to 100 scale (0 no effect, 100 complete control), 13 to 15 days
Protocol: (§3) Seeds selected from rice (Oryza sativa), sedge, umbrella (small-flower umbrella sedge Cyperus difformis), ducksalad (Heteranthera limosa), and barnyardgrass (Echinochloa crus-galli) were grown to the 2-leaf stage for testing. At time of treatment, test pots were flooded to 3 cm above the soil surface, treated by application of test compounds directly to the paddy water, and then maintained at that water depth for the duration of the test.
(§4) Treated plants and controls were maintained in a greenhouse for 13 to 15 days, after which time all species were compared to controls and visually evaluated. Plant response ratings, summarized in Table B, are based on a scale of 0 to 100 where 0 is no effect and 100 is complete control. A dash (-) response means no test result.

pigweed [7] = assay: Test A postemergence; assay type: in vivo, Amaranthus retroflexus
Procedure, shortened: as §1

corn [8] = assay: Test A preemergence; assay type: in vivo, Zea mays; settings: for Corn plant response rating (0 to 100 scale): visual injury approx. 10 days after treatment
Procedure, shortened: as §1

barnyardgrass [9] = assay: Test A preemergence; assay type: in vivo, Echinochloa crus-galli
Procedure, shortened: as §1

velvetleaf [10] = assay: Test A preemergence; assay type: in vivo, Abutilon theophrasti; settings: for Velvetleaf plant response rating (0 to 100 scale): visual injury approx. 10 days after treatment
Procedure, shortened: as §1

pigweed [11] = assay: Test A preemergence; assay type: in vivo, Amaranthus retroflexus; settings: for Pigweed plant response rating (0 to 100 scale): visual injury approx. 10 days after treatment
Procedure, shortened: as §1

foxtail, giant [12] = assay: Test A postemergence; assay type: in vivo, Setaria faberii
Procedure, shortened: as §1

barnyardgrass [13] = assay: Test B flood; assay type: in vivo, Echinochloa crus-galli; settings: 250 g ai/ha, visual rating on 0 to 100 scale (0 no effect, 100 complete control), 13 to 15 days
Procedure, shortened: as §2

rice = assay: Test B flood; assay type: in vivo, Oryza sativa; settings: 250 g ai/ha, visual rating on 0 to 100 scale (0 no effect, 100 complete control), 13 to 15 days
Protocol: as §3, §4

wheat [14] = assay: Test A postemergence; assay type: in vivo, Triticum aestivum
Procedure, shortened: as §1

foxtail, giant [15] = assay: Test A preemergence; assay type: in vivo, Setaria faberii; settings: for Foxtail, Giant plant response rating (0 to 100 scale): visual injury approx. 10 days after treatment
Procedure, shortened: as §1

wheat [16] = assay: Test A preemergence; assay type: in vivo, Triticum aestivum; settings: preemergence; for Wheat plant response rating (0 to 100 scale): visual injury approx. 10 days after treatment
Procedure, shortened: as §1

crabgrass, large [17] = assay: Test A postemergence; assay type: in vivo, Digitaria sanguinalis
Procedure, shortened: as §1

[18] = Postemergence, 125 g ai/ha, 0 to 100 scale, 0 no effect, 100 complete control
[19] = Postemergence, 500 g ai/ha, visual rating after approx. 10 days, 0 to 100 scale (0 no effect, 100 complete control)
[20] = postemergence, 125 g ai/ha, about 10 days, visual rating on 0 to 100 scale (0 no effect, 100 complete control)
[21] = Preemergence, 500 g ai/ha, 0 to 100 scale, 0 no effect, 100 complete control
[22] = preemergence, 125 g ai/ha, visual injury, 0 to 100 scale, approx. 10 days
[23] = 500 g ai/ha, visual injury after approx. 10 days, 0 to 100 scale (0 no effect, 100 complete control)
[24] = Postemergence, 500 g ai/ha, 0 to 100 scale (0 no effect, 100 complete control)
[25] = preemergence, 500 g ai/ha, visual injury after approx. 10 days, 0 to 100 scale (0 no effect, 100 complete control)

CCCCNC(=O)c1cc(C)n(Oc2ccnc(C(F)(F)F)c2)n1 [Compound 85]
Barnyardgrass plant response rating (barnyardgrass [1]; [18]): 0 | Barnyardgrass plant response rating (barnyardgrass [1]; [19]): 10 | Morningglory plant response rating (morningglory [2]; [19]): 40 | Morningglory plant response rating (morningglory [2]; [20]): 10 | Corn plant response rating (corn [3]; [19]): 10 | Corn plant response rating (corn [3]; [20]): 0 | Crabgrass, Large plant response rating (crabgrass, large [4]; [21]): 80 | Crabgrass, Large plant response rating (crabgrass, large [4]; [22]): 20 | Morningglory plant response rating (morningglory [5]; [21]): 10 | Morningglory plant response rating (morningglory [5]; [22]): 0 | Velvetleaf plant response rating (velvetleaf [6]; [19]): 10 | Velvetleaf plant response rating (velvetleaf [6]; [20]): 0 | Plant response rating, Sedge, Umbrella (sedge, umbrella): 0 | Plant response rating, Ducksalad (ducksalad): 0 | Pigweed plant response rating (pigweed [7]; [19]): 10 | Pigweed plant response rating (pigweed [7]; [20]): 0 | Corn plant response rating (corn [8]; [21]): 0 | Corn plant response rating (corn [8]; [22]): 0 | Barnyardgrass plant response rating (barnyardgrass [9]; [21]): 30 | Barnyardgrass plant response rating (barnyardgrass [9]; [22]): 0 | Velvetleaf plant response rating (velvetleaf [10]; [21]): 0 | Velvetleaf plant response rating (velvetleaf [10]; [22]): 0 | Pigweed plant response rating (pigweed [11]; [21]): 0 | Pigweed plant response rating (pigweed [11]; [22]): 0 | Foxtail, Giant plant response rating (foxtail, giant [12]; [19]): 20 | Foxtail, Giant plant response rating (foxtail, giant [12]; [20]): 0 | Plant response rating, Barnyardgrass (barnyardgrass [13]): 0 | Plant response rating, Rice (rice): 0 | Wheat plant response rating (wheat [14]; [19]): 0 | Wheat plant response rating (wheat [14]; [20]): 0 | Foxtail, Giant plant response rating (foxtail, giant [15]; [21]): 50 | Foxtail, Giant plant response rating (foxtail, giant [15]; [22]): 0 | Wheat plant response rating (wheat [16]; 125 g ai/ha, visual injury, 0 to 100 scale, approx. 10 days): 0 | Wheat plant response rating (wheat [16]; [23]): 0 | Crabgrass, Large plant response rating (crabgrass, large [17]; [19]): 20 | Crabgrass, Large plant response rating (crabgrass, large [17]; [20]): 10

CCc1cc(C(=O)NCC#N)nn1Cc1ccnc(C(F)(F)F)c1 [Compound 147]
Barnyardgrass plant response rating (barnyardgrass [1]; [24]): 30 | Barnyardgrass plant response rating (barnyardgrass [1]; [20]): 10 | Morningglory plant response rating (morningglory [2]; [24]): 70 | Morningglory plant response rating (morningglory [2]; [20]): 30 | Corn plant response rating (corn [3]; [24]): 10 | Corn plant response rating (corn [3]; [20]): 0 | Crabgrass, Large plant response rating (0 to 100 scale) (crabgrass, large [4]; preemergence, 125 g ai/ha): 50 | Crabgrass, Large plant response rating (crabgrass, large [4]; [25]): 100 | Morningglory plant response rating (0 to 100 scale) (morningglory [5]; preemergence, 125 g ai/ha): 20 | Morningglory plant response rating (morningglory [5]; [25]): 70 | Velvetleaf plant response rating (velvetleaf [6]; [24]): 50 | Velvetleaf plant response rating (velvetleaf [6]; [20]): 30 | Plant response rating, Sedge, Umbrella (sedge, umbrella): 0 | Plant response rating, Ducksalad (ducksalad): 0 | Pigweed plant response rating (pigweed [7]; [24]): 90 | Pigweed plant response rating (pigweed [7]; [20]): 60 | Corn plant response rating (0 to 100 scale) (corn [8]; preemergence, 125 g ai/ha): 0 | Corn plant response rating (corn [8]; [25]): 0 | Barnyardgrass plant response rating (barnyardgrass [9]; [22]): 0 | Barnyardgrass plant response rating (barnyardgrass [9]; [25]): 30 | Velvetleaf plant response rating (0 to 100 scale) (velvetleaf [10]; preemergence, 125 g ai/ha): 0 | Velvetleaf plant response rating (velvetleaf [10]; [25]): 30 | Pigweed plant response rating (0 to 100 scale) (pigweed [11]; preemergence, 125 g ai/ha): 90 | Pigweed plant response rating (pigweed [11]; [25]): 100 | Foxtail, Giant plant response rating (foxtail, giant [12]; [24]): 30 | Foxtail, Giant plant response rating (foxtail, giant [12]; [20]): 10 | Plant response rating, Barnyardgrass (barnyardgrass [13]): 0 | Plant response rating, Rice (rice): 0 | Wheat plant response rating (wheat [14]; [24]): 0 | Wheat plant response rating (wheat [14]; [20]): 0 | Foxtail, Giant plant response rating (0 to 100 scale) (foxtail, giant [15]; preemergence, 125 g ai/ha): 10 | Foxtail, Giant plant response rating (foxtail, giant [15]; [25]): 80 | Wheat plant response rating (0 to 100 scale) (wheat [16]; 125 g ai/ha): 0 | Wheat plant response rating (wheat [16]; [23]): 0 | Crabgrass, Large plant response rating (crabgrass, large [17]; [24]): 40 | Crabgrass, Large plant response rating (crabgrass, large [17]; [20]): 10

CCc1cc(C(=O)NCC(F)(F)F)nn1Cc1nc(C(F)(F)F)no1 [Compound 184]
Barnyardgrass plant response rating (barnyardgrass [1]; [24]): 60 | Barnyardgrass plant response rating (barnyardgrass [1]; [20]): 0 | Morningglory plant response rating (morningglory [2]; [18]): 30 | Morningglory plant response rating (morningglory [2]; [24]): 90 | Corn plant response rating (corn [3]; [24]): 60 | Corn plant response rating (corn [3]; [20]): 0 | Crabgrass, Large plant response rating (0 to 100 scale) (crabgrass, large [4]; preemergence, 125 g ai/ha): 50 | Crabgrass, Large plant response rating (crabgrass, large [4]; [25]): 100 | Morningglory plant response rating (0 to 100 scale) (morningglory [5]; preemergence, 125 g ai/ha): 20 | Morningglory plant response rating (morningglory [5]; [25]): 100 | Velvetleaf plant response rating (velvetleaf [6]; [18]): 50 | Velvetleaf plant response rating (velvetleaf [6]; [24]): 60 | Plant response rating, Sedge, Umbrella (sedge, umbrella): 0 | Plant response rating, Ducksalad (ducksalad): 0 | Pigweed plant response rating (pigweed [7]; [18]): 60 | Pigweed plant response rating (pigweed [7]; [24]): 90 | Corn plant response rating (0 to 100 scale) (corn [8]; preemergence, 125 g ai/ha): 0 | Corn plant response rating (corn [8]; [25]): 30 | Barnyardgrass plant response rating (0 to 100 scale, 0 is no effect, 100 is complete control) (barnyardgrass [9]; preemergence, 125 g ai/ha, visual injury approx. 10 days after treatment): 0 | Barnyardgrass plant response rating (barnyardgrass [9]; [25]): 100 | Velvetleaf plant response rating (0 to 100 scale) (velvetleaf [10]; preemergence, 125 g ai/ha): 0 | Velvetleaf plant response rating (velvetleaf [10]; [25]): 50 | Pigweed plant response rating (0 to 100 scale) (pigweed [11]; preemergence, 125 g ai/ha): 60 | Pigweed plant response rating (pigweed [11]; [25]): 100 | Foxtail, Giant plant response rating (foxtail, giant [12]; [24]): 40 | Foxtail, Giant plant response rating (foxtail, giant [12]; [20]): 0 | Plant response rating, Barnyardgrass (barnyardgrass [13]): 0 | Plant response rating, Rice (rice): 0 | Wheat plant response rating (wheat [14]; [18]): 0 | Wheat plant response rating (wheat [14]; [24]): 20 | Foxtail, Giant plant response rating (0 to 100 scale) (foxtail, giant [15]; preemergence, 125 g ai/ha): 60 | Foxtail, Giant plant response rating (foxtail, giant [15]; [25]): 90 | Wheat plant response rating (0 to 100 scale) (wheat [16]; 125 g ai/ha): 0 | Wheat plant response rating (wheat [16]; [23]): 20 | Crabgrass, Large plant response rating (crabgrass, large [17]; [24]): 70 | Crabgrass, Large plant response rating (crabgrass, large [17]; [20]): 0
